Here are results for two molecules from patent publication US5986103A, “2-alkyl-1H-imidazole-5-carboxylic acids” (Hoechst Marion Roussel, priority 1995, dated 1999).

The target of one test is T1, Endothelin A receptor (Rattus norvegicus, UniProt P26684).
T1 construct: A membrane preparation is prepared from the heart (ventricles) of a rat; from tissue; host or cells: rat heart ventricles, membrane preparation
T1 sequence (P26684 21-426): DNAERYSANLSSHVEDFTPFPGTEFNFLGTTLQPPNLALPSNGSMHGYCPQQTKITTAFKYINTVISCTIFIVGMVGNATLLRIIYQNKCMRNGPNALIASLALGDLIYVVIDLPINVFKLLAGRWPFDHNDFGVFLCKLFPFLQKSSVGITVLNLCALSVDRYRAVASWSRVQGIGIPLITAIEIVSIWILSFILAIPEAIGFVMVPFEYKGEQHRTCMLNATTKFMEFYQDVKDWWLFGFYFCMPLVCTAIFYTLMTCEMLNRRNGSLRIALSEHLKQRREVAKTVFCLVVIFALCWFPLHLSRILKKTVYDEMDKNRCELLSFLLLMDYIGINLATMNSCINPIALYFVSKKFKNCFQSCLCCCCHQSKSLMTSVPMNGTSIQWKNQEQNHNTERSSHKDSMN
Nature of the test: Affinity for the Endothelin A receptor: displacement of 125I endothelin from rat heart (ventricles) membrane preparation. Conditions: rat heart (ventricles) membranes, 25° C. for 60 minutes, pH 7.4, read-out: Endothelin A receptor IC50 in nanomoles. It counts as binding. Here is the method: 1) Study of the Affinity for the Endothelin A Receptor
A membrane preparation is prepared from the heart (ventricles) of a rat. The tissue is ground up in a POLYTRON in a 50 mM Tris buffer pH=7.4.
After 30 minutes at 25° C. (W.B.) the homogenate is centrifuged at 30,000 g for 15 minutes (2 centrifugations with intermediate take-up in the Tris buffer pH. 7.4).
The pellets are suspended in an incubation buffer (25 mM Tris, 5 microg/ml pepstatin A, 3 microg/ml aprotinin, 0.1 mM PMSF, 3 mM EDTA, 1 mM EGTA pH 7.4).
2 ml aliquoted fractions are distributed in hemolysis tubes and ^125 I endothelin (approximately 50,000 dpm/tube) and the product to be studied are added. (The product is first tested at 3×10^-5 M three times). When the tested product displaces more than 50% of radioactivity specifically bound to the receptor, it is tested again according to a range of 7 concentrations in order to determine the concentration which inhibits by 50% the radioactivity specifically bound to the receptor. In this way the 50% inhibitory concentration is determined.
(§1) The non-specific bond is determined by the addition of endothelin at 10^-6 M (three times). After incubation at 25° C. for 60 minutes, replacing in a water-bath at 0° C. for 5 minutes, filtration under reduced pressure and rinsing with Tris buffer pH 7.4, the radioactivity is counted in the presence of scintillating Triton. […]
Background: Loss of bound radioactivity is the signal in a displacement assay; it reports binding, not function.

Another test addresses T2, Endothelin B receptor (Rattus norvegicus, UniProt P21451).
T2 construct: A membrane preparation is prepared from the rear cortex plus the cerebellum of a rat; from tissue; host or cells: rat rear cortex plus cerebellum, membrane preparation
T2 sequence (P21451 27-442): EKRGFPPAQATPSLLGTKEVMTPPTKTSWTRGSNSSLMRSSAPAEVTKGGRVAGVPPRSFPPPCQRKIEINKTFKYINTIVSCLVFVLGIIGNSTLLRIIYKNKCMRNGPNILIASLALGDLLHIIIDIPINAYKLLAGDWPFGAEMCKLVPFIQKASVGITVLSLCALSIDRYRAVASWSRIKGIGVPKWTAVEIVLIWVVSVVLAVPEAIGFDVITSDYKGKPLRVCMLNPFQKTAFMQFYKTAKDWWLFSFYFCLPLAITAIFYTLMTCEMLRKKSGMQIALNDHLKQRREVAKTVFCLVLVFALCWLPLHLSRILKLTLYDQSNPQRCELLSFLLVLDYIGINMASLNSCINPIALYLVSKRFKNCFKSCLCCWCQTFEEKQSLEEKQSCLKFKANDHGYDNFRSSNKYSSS
Nature of the test: Affinity for the Endothelin B receptor: displacement of 125I endothelin from rat cortex plus cerebellum membrane preparation. Format: binding. Conditions: rat rear cortex plus cerebellum membranes, 25° C. for 60 minutes, pH 7.4, read-out: Endothelin B receptor IC50 in nanomoles. Here is the method:
2) Study of the Affinity for the Endothelin B Receptor
A membrane preparation is prepared from the rear cortex plus the cerebellum of a rat. The tissue is ground up in a POLYTRON in a 50 mM Tris buffer pH=7.4.
After 30 minutes at 250C (W.B.) the homogenate is centrifuged at 30,000 g for 15 minutes (2 centrifugations with intermediate take-up in the Tris buffer pH. 7.4).
The pellets are suspended in an incubation buffer (25 mM Tris, 5 microg/ml pepstatin A, 3 microg/ml aprotinin, 0.1 mM PMSF, 3mM EDTA, 1 mM EGTA pH 7.4).
2 ml aliquoted fractions are distributed in hemolysis tubes and 125I endothelin (approximately 50,000 dpm/tube) and the product to be studied are added. (The product is first tested at 3×10^-5 M three times). When the tested product displaces more than 50% of the radioactivity specifically bound to the receptor, it is tested again according to a range of 7 concentrations in order to determine the concentration which inhibits by 50% the radioactivity specifically bound to the receptor. In this way the 50% inhibitory concentration is determined.
as §1

A further test relates to Endothelin. Description: Antagonistic activity of endothelin in a demedullated rat (inhibition of increase in arterial pressure induced by endothelin). Format: in vivo, Male Sprague-Dawley rats. Conditions: product 10 mg/kg injected (pudendal vein) 10 minutes before endothelin. Here is the method:
3) Test for Antagonistic Activity of Endothelin in a Demedullated Rat
Male Sprague-Dawley rats (250 to 350 g) are anaesthetized (sodium pentobarbital 60 mg/kg injected by intraperitoneal route). The animal is placed under assisted respiration and a bilateral section of the vagus nerves is carried out. The rat is then demedullated.
The average arterial pressure is recorded with a heparin catheter (PE50) introduced into the carotid of the animal and connected via a pressure sensor and an amplifier to a recorder (Gould pressure processor). A catheter is implanted in the pudendal vein in order to allow injection of the molecules to be studied. After a stabilization period (about 15 minutes), the product or the solvent is injected 10 minutes before a range of increasing doses of endothelin which are injected every 2 minutes (0.1-0.3-1-3-10 ug/kg).
The antagonistic activity of the products is estimated by the percentage inhibition of the increase in pressure induced by endothelin at doses of 3 and 10 ug/kg.

Consider `CCCc1nc(Sc2ccc(OCC(=O)O)cc2)c(C(=O)O)n1Cc1cc2c(cc1Cl)OCO2` [Example 1, 4-((4-(carboxymethoxy)phenyl)thio)-1-((6-chloro-1,3-benzodioxol5-yl)methyl)2-propyl1H-imidazole5-carboxylic acid], for which the IC50 (commonly the concentration at which inhibition is half-maximal) on Endothelin A receptor was determined as 2.5 nM. Further, the IC50 at Endothelin B receptor came to 88.5 nM. Moreover, in the test with Endothelin, the “% inhibition of vasoconstriction Et1 3 μg/kg” value is -52% and the “% inhibition of vasoconstriction Et1 10 μg/kg” value is -50%.
On the same counts, the results for `CC(C)c1nc(Sc2ccc(CCC(=O)O)cc2)c(C(=O)O)n1Cc1cc2c(cc1Cl)OCO2` [Example 3, 4-((4-(2-carboxyethyl)phenyl)thio)-1-((6-chloro-1,3-benzodioxol-5-yl)methyl)-2-(1-methylethyl)-1H-imidazole-5-carboxylic acid] are 2.5 nM, 78.4 nM, “+7%” and -31%.
